Data reported in US10966962B2, “Method for treating neurodegenerative diseases” (THE BOARD OF TRUSTEES OF THE LELAND STANFORD JUNIOR …, priority 2014, dated 2021).

Experiments:
MPTP-treated animals = experiment: Nest-building test in MPTP model of PD; type: in vivo, mice; conditions: one dose 25 mg/kg
Method: Impaired nest-building skill has been widely used as one of the most reliable indication of motor dysfunction in the MPTP model of […] et al, Behav Brain Res, 125:109-25, 2001). In this test, animals are given cotton pads to be used as nestling, and are tested for their abilities to tear off the cotton pads into small pieces to build a nest; these abilities require fine motor coordination. Animals with microglia-specific deletion of Ppargc1a and controls were generated as described in Example 1. […] Control animals received a similar volume of PBS. Immediately after the last dosage of MPTP, each animal was put in one cage and given two cotton pads to be used in nestling; the appearance of the cotton pads was evaluated 16 hours later. The results are shown in FIG. 7 as weights of shredded nestlets (n=9-10 animals per treatment group). […] MPTP-ZLN animals generated more cotton-debris in comparison to the MPTP-Ctrl group. […] Unpaired t-tests were used for statistical analyses.

[1] = tested on: CD115+CD11b+blood monocytes; experiment: Systemic inflammation in ALS transgenic animals (blood monocytes, serum TNF-α ELISA); type: in vivo, mice; conditions: 25 mg/kg orally 3 times a week for 8 weeks
Method: ALS transgenic animals were orally treated 3 times a week for 8 weeks with 0.5% methylcellulose or ZLN005 (Sigma) at 25 mg/kg in 0.5% methylcellulose, starting at 5 weeks of age. For measuring the frequency of CD115+CD11b+blood monocytes, ALS-Ctrl transgenic animals (n=10), ALS-ZLN (n=10), and WT animal (n=10) were sacrificed at 13 weeks of age. The Y-axis in FIGS. 21A and 21B represents % of total monocytes and % of Ly6C+ inflammatory monocytes among circulating immune cells.

microglia [2] = experiment: Ex vivo TNF-α production by microglia from MPTP-treated FF and Cre animals; type: in vivo, mice; conditions: 2-hour ex vivo assay, Day 4
Method: Animals with microglia-specific deletion of Ppargc1a were generated by crossing mice harboring the foxed allele of Ppargc1a (Ppargc1a^LoxP/LoxP) with those expressing Tamoxifen inducible Cre recombinase under the control of Cx3cr1 promoter (Cx3cr1^CreER). To induce Cre-mediated deletion of Ppargc1a in Cx3cr1 expressing cells, Tamoxifen (Sigma) in 200 μl corn oil (50 mg/ml, Sigma) was administered to 3 weeks old (Ppargc1a^LoxP/LoxPCx3cr1^CreER) mice twice at 48-hour intervals (Wolf et al Front Cell Neurosci 2013, 18;7:26. doi: 10.3389/fnce1.2013.00026). Littermates carrying the foxed allele of Ppargc1a alleles but lacking expression of Cre recombinase (Ppargc1a^LoxP/LoxP) were used as controls. Animals were rested for another 5-6 weeks before MPTP was administered. Animals with microglia-specific deletion of Ppargc1a and controls were generated as described in Example 1. […] PBS-perfused brain tissues of sacrificed animals were digested with Collagenase IV and isolated by flow cytometry. For measuring microglial production of TNF-α, MPTP-ZLN (n=5), MPTP-Ctrl (n=10) and Veh (n=6) animals were sacrificed. Isolated microglia were subjected to a 2-hour ex vivo TNF-α production assay. Supernatant samples were collected for TNF-α measurement with CBA technology (BD). […] Unpaired t-tests were used for statistical analyses.

[3] = tested on: brains of STZ-treated-animals; experiment: Gene expression in brain in acute STZ model of AD; type: in vivo, mice; conditions: 25 mg/kg orally daily until Day 4
Method: (§1) To induce symptoms of AD, STZ (3 mg/kg, Sigma) was administered via intracerebral injection ([…] et al, Int J Neurosci, PMID 24494726, 2014). This is a well-established model of the sporadic form of AD. Briefly, animals were anesthetized and STZ solution in 5 μl artificial cerebrospinal fluid (Harvard Apparatus) was injected through the skull with a 50 μl syringe. Control animals received a similar volume of artificial cerebrospinal fluid without STZ. The injections were performed twice, on Day 1 and Day 3. […] Treatment with ZLN005 was continued on a daily schedule until Day 4.

Ppargc1a = tested on: Ppargc1a
Method: To induce symptoms of PD, MPTP (20 mg/kg) was administered intraperitoneally in sterile PBS 4 times at 2-hour intervals on day 1. […] Log-rank test was used for statistical analysis.
Ppargc1a, an inducer of mitochondrial biogenesis, is widely expressed in cells throughout the body.
For protein expression studies, animals were sacrificed on Day 4, 24 hours after the 3rd oral dosage of ZLN005 and PBS-perfused brain tissues were digested with Collagenase IV, processed for microglia isolation by flow cytometry (Ginhoux et al Science, 330:841-5, 2010), and immunoblot analysis of Ppargc1a expression.

microglia [4] = experiment: Microglia flow cytometry in acute STZ model of AD (TNF-α, ThioltrackerViolet, MitotrackerRed); type: in vivo, mice
Method: as §1, with “7. […] Microglia were phenotyped with antibodies directed against mouse TNF-α (Biolegend) and metabolic dyes […], and MitotrackerRed (Invitrogen) for flow cytometric acquisition (LSRII, BD) and analysis (FlowJo). […] ANOVA was used for statistical analyses.” for “4.”

HD transgenic mice = experiment: Wheel-running test in HD transgenic animals (R6/2); type: in vivo; conditions: HD transgenic (R6/2); 25 mg/kg orally 3 times a week for 4 weeks from 6 weeks of age; constant speed 5 rpm
Method: The wheel-running test in this example was performed similarly to that described in Example 8. HD transgenic animals (R6/2) were purchased from Jackson Laboratories. […] HD transgenic mice were orally treated 3 times a week for 4 weeks with either 0.5% methylcellulose (n=8) or ZLN005 (Sigma) at 25 mg/kg in 0.5% methylcellulose (n=7), starting at 6 weeks of age. Subsequently, at 10 weeks of age, these mice were subjected to 2 weeks of training on a treadmill at a constant speed of 5 rpm (rotations per minute). After the training, mice were tested for motor performance at a constant speed of 5 rpm. […] Unpaired t-test was used for statistical analysis.

[5] = STZ-treated animals, 25 mg/kg orally daily until Day 7

CC(C)(C)c1ccc(-c2nc3ccccc3[nH]2)cc1 [ZLN005, 2-(4-tert-butylphenyl)-1H-benzimidazole]
nest-building, weights of shredded nestlets (fine motor skills) (MPTP-treated animals; MPTP-treated Cre animals): present only in FF animals but not in Cre animals
nest-building, weights of shredded nestlets (fine motor skills) (MPTP-treated animals; MPTP-treated FF animals, evaluated 16 hours later, vs MPTP-Ctrl): marked improvement in their fine motor skills
% of Ly6C+ inflammatory monocytes among circulating immune cells ([1]; 13 weeks of age): decreased
% of total monocytes among circulating immune cells ([1]; 13 weeks of age): decreased
serum levels of TNF-α ([1]; ELISA): significantly suppressed
TNF-α production in microglia (microglia [2]; MPTP-treated Cre animals (microglial Ppargc1a deletion)): failed to exert its anti-inflammatory effects
TNF-α production in microglia (microglia [2]; MPTP-treated FF animals): suppressed TNF-α production
expression of genes involved in Ppargc1a signaling and antioxidant defense (Tfam, Cytc) in the brain [3]: increased expression
expression of genes involved in β-amyloid generation (App and Psen1) in the brain [3]: decreased the expression
Ppargc1a protein expression in microglia (Ppargc1a; MPTP-treated animals, 25 mg/kg orally, 3 doses, Day 4): enhanced Ppargc1a protein expression in microglia
blood-brain barrier penetration (Ppargc1a; mouse, in vivo, po, 25 mg/kg): penetrated the blood-brain barrier
TNF-α production in microglia (microglia [4]; [5]): suppressed TNF-α production
mitochondrial potential in microglia (MitotrackerRed) (microglia [4]; [5]): enhanced
production of glutathione in microglia (ThioltrackerViolet) (microglia [4]; [5]): enhanced
glycolysis in microglia (microglia [4]; microglia isolated from STZ-treated animals): enhanced glycolysis
latency to fall (HD transgenic mice): 110 s
